Measurements as given in US10829520B2, “Beta-hairpin peptidomimetics” (POLYPHOR AG, priority 2015, dated 2020).
Where a SMILES comes first, the peptide text is derived from it. Bridges are numbered along the chain shown (N, C = ends). Roman numbers before positions name the chains, in order. [ ]: non-standard residue; d: D form. Tle = CC(C)(C)[C@H](N)C(=O)O; dDab = NCC[C@@H](N)C(=O)O; Nle = CCCC[C@H](N)C(=O)O; Orn = NCCC[C@H](N)C(=O)O; Dab = NCC[C@H](N)C(=O)O; dAze = O=C(O)[C@H]1CCN1; Dap = NC[C@H](N)C(=O)O

Key:
Assay type in all cases: cell-based
[1] = test system: Acinetobacter baumannii 872842; details: 872842
[2] = test system: Acinetobacter baumannii DSM 30008; details: DSM 30008
Procedure, shortened: (§1)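 Broth microdilution per CLSI, cation-adjusted MH-II medium, 0.002% (v/v) polysorbate 80 final. Approx. 10^6 CFU/mL inoculum, incubated 35° C for 18-20 h; MIC read as absence of visible growth.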

Escherichia coli 926415 = details: 926415
[3] = test system: Escherichia coli ATCC 25922; details: ATCC 25922
Procedure, shortened: as §1

[4] = test system: Klebsiella pneumoniae 968733; details: 968733
[5] = test system: Klebsiella pneumoniae SSI #3010; details: SSI #3010
Procedure, shortened: as §1

[6] = test system: Pseudomonas aeruginosa ATCC 27853; details: ATCC 27853
Procedure, shortened: as §1

[7] = test system: human red blood cells (hRBC); assay: Hemolysis of human red blood cells; details: red cells of human, 1 h
Procedure, shortened: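 Percent lysis of washed human erythrocytes after 1 h at 37° C. with 100 μg/mL peptide, calculated from OD540 of 8-fold diluted supernatant as a fraction of the 2.5% Triton X-100 value.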

Row | Compound | Acinetobacter baumannii 872842 MIC [1] [µg/mL] | Acinetobacter baumannii DSM 30008 MIC [2] [µg/mL] | Escherichia coli 926415 MIC (Escherichia coli 926415) [µg/mL] | Escherichia coli ATCC 25922 MIC [3] [µg/mL] | Klebsiella pneumoniae 968733 MIC [4] [µg/mL] | Klebsiella pneumoniae SSI #3010 MIC [5] [µg/mL] | Pseudomonas aeruginosa ATCC 27853 MIC [6] [µg/mL] | Hemolysis at 100 μg/mL ([7]; 100 μg/mL) [%] | Hemolysis at 100 μg/mL [7]; 100 [%]
1 | CCCC[C@@H]1NC(=O)[C@@H]2CCCN2C(=O)[C@H]2CCCN2C(=O)[C@H](CO)NC(=O)[C@H](C)NC(=O)[C@H](C(C)(C)C)NC(=O)[C@@H](NC(=O)[C@H](Cc2c[nH]c3ccccc23)NC(C)=O)CSSC[C@@H](C(=O)N[C@@H](CCCN)C(=O)N[C@@H](CCN)C(=O)N[C@H]2CCNC(=O)[C@H]([C@@H](C)O)NC(=O)[C@H](CCN)NC(=O)[C@H](CCN)NC(=O)[C@H](CC(C)C)NC(=O)[C@@H](Cc3ccccc3)NC(=O)[C@H](CCN)NC2=O)NC(=O)[C@H](Cc2ccc(O)cc2)NC(=O)[C@H](CO)NC1=O [Ex. 48] (Ac-WC[Tle]AS[dP]P[Nle]SYC[Orn][Dab][Dab][Dab][dF]L[Dab][Dab]T; disulfide 2-11; lactam 14-C) | 0.5 | 0.5 | 0.25 | 0.125 | 1 | 0.25 | 1 | 2 | –
2 | CCCC[C@@H]1NC(=O)[C@@H]2CCCN2C(=O)[C@H]2CCCN2C(=O)[C@H](CO)NC(=O)[C@H](C)NC(=O)[C@H](C(C)(C)C)NC(=O)[C@H](CCN)NC(=O)[C@H](Cc2c[nH]c3ccccc23)NC(=O)[C@H](CCN)NC(=O)[C@@H](CCC(=O)N[C@H]2CCNC(=O)[C@H]([C@@H](C)O)NC(=O)[C@H](CCN)NC(=O)[C@H](CCN)NC(=O)[C@H](CC(C)C)NC(=O)[C@@H](Cc3ccccc3)NC(=O)[C@H](CCN)NC2=O)NC(=O)[C@H](CCCN)NC(=O)[C@H](CCN)NC(=O)[C@H](Cc2ccc(O)cc2)NC(=O)[C@H](CO)NC1=O [Ex. 1] (I: cyclo([Nle]SY[Dab][Orn][dE][Dab]W[Dab][Tle]AS[dP]P) / II: [Dab][Dab][dF]L[Dab][Dab]T; amide I:6-II:N; lactam II:1-II:C) | 2 | 0.125 | 1 | 0.25 | 4 | 0.5 | 0.5 | – | 1
3 | CCCC[C@@H]1NC(=O)[C@@H]2CCCN2C(=O)[C@H]2CCCN2C(=O)[C@H](CO)NC(=O)[C@H](C)NC(=O)[C@H](C(C)(C)C)NC(=O)[C@@H](NC(=O)[C@H](Cc2c[nH]c3ccccc23)NC(C)=O)CSSC[C@@H](C(=O)N[C@@H](CCN)C(=O)N[C@H](C(=O)N[C@@H](CN)C(=O)N[C@H]2CCNC(=O)[C@H]([C@@H](C)O)NC(=O)[C@H](CCN)NC(=O)[C@H](CCN)NC(=O)[C@H](CC(C)C)NC(=O)[C@@H](Cc3ccccc3)NC(=O)[C@H](CCN)NC2=O)[C@@H](C)O)NC(=O)[C@H](Cc2ccc(O)cc2)NC(=O)[C@H](CO)NC1=O [Ex. 20] (Ac-WC[Tle]AS[dP]P[Nle]SYC[Dab]T[Dap][Dab][Dab][dF]L[Dab][Dab]T; disulfide 2-11; lactam 15-C) | 0.5 | 0.5 | 0.25 | 0.125 | 1 | 0.25 | 0.25 | 1 | –
4 | CCCC[C@@H]1NC(=O)[C@@H]2CCCN2C(=O)[C@H]2CCCN2C(=O)[C@H](CO)NC(=O)[C@H](CN)NC(=O)[C@H](C(C)(C)C)NC(=O)[C@H](CCN)NC(=O)[C@H](Cc2c[nH]c3ccccc23)NC(=O)[C@H](CCN)NC(=O)[C@@H](CCN)NC(=O)[C@H](CCC(=O)N[C@@H](CCN)C(=O)N[C@H](C(=O)N[C@@H](CCN)C(=O)N[C@H]2CCNC(=O)[C@H]([C@@H](C)O)NC(=O)[C@H](CCN)NC(=O)[C@H](CCN)NC(=O)[C@H](CC(C)C)NC(=O)[C@@H](CC(C)C)NC(=O)[C@H](CCN)NC2=O)[C@@H](C)O)NC(=O)[C@H](CCN)NC(=O)[C@H](Cc2ccc(O)cc2)NC(=O)[C@H](CO)NC1=O [Ex. 84] (I: cyclo([Nle]SY[Dab]E[dDab][Dab]W[Dab][Tle][Dap]S[dP]P) / II: [Dab]T[Dab][Dab][Dab][dL]L[Dab][Dab]T; amide I:5-II:N; lactam II:4-II:C) | 2 | 1 | 1 | 1 | 2 | 2 | 2 | – | 1
5 | CCCC[C@@H]1NC(=O)[C@@H]2CCCN2C(=O)[C@H]2CCCN2C(=O)[C@H](CO)NC(=O)[C@H](C)NC(=O)[C@H](C(C)(C)C)NC(=O)[C@@H](NC(=O)[C@H](Cc2c[nH]c3ccccc23)NC(C)=O)CSSC[C@@H](C(=O)N[C@@H](C)C(=O)N[C@@H](CCN)C(=O)N[C@H](C(=O)N[C@@H](CCN)C(=O)N[C@H]2CCNC(=O)[C@H]([C@@H](C)O)NC(=O)[C@H](CCN)NC(=O)[C@H](CCN)NC(=O)[C@H](CC(C)C)NC(=O)[C@@H](Cc3ccccc3)NC(=O)[C@H](CCN)NC2=O)[C@@H](C)O)NC(=O)[C@H](Cc2ccc(O)cc2)NC(=O)[C@H](CO)NC1=O [Ex. 28] (Ac-WC[Tle]AS[dP]P[Nle]SYCA[Dab]T[Dab][Dab][Dab][dF]L[Dab][Dab]T; disulfide 2-11; lactam 16-C) | 1 | 0.5 | 1.5 | 0.25 | 0.375 | 0.25 | 0.5 | 1 | –
6 | CC(C)C[C@@H]1NC(=O)[C@@H](Cc2ccccc2)NC(=O)[C@H](CCN)NC(=O)[C@@H](NC(=O)[C@H](CCN)NC(=O)[C@H](CCCN)NC(=O)[C@@H]2CSSC[C@H](NC(=O)[C@@H](N)Cc3c[nH]c4ccccc34)C(=O)N[C@@H](C(C)(C)C)C(=O)N[C@H]3CC(=O)NCC[C@H](NC(=O)[C@H](C(C)C)NC(=O)[C@@H]4CCCN4C(=O)[C@H]4CCN4C(=O)[C@H]([C@@H](C)O)NC3=O)C(=O)N[C@@H](Cc3ccc(O)cc3)C(=O)N2)CCNC(=O)[C@H]([C@@H](C)O)NC(=O)[C@H](CCN)NC(=O)[C@H](CCN)NC1=O [Ex. 191] (H-WC[Tle]DT[dAze]PV[Dab]YC[Orn][Dab][Dab][Dab][dF]L[Dab][Dab]T; disulfide 2-11; lactam 4-9, 14-C) | 0.25 | 0.5 | 0.125 | 0.5 | 0.5 | 0.25 | 1 | 6 | –
7 | CC(=O)N[C@@H](Cc1c[nH]c2ccccc12)C(=O)N[C@H]1CSSC[C@@H](C(=O)N[C@@H](CCCN)C(=O)N[C@H](C(=O)N[C@@H](CCN)C(=O)N[C@H]2CCNC(=O)[C@H]([C@@H](C)O)NC(=O)[C@H](CCN)NC(=O)[C@H](CCN)NC(=O)[C@H](CC(C)C)NC(=O)[C@@H](Cc3ccccc3)NC(=O)[C@H](CCN)NC2=O)[C@@H](C)O)NC(=O)[C@H](Cc2ccc(O)cc2)NC(=O)CNC(=O)[C@H](CC(C)C)NC(=O)[C@@H]2CCCN2C(=O)[C@H]2CCCN2C(=O)[C@H](CO)NC(=O)[C@H](CN)NC(=O)[C@H](C(C)(C)C)NC1=O [Ex. 117] (Ac-WC[Tle][Dap]S[dP]PLGYC[Orn]T[Dab][Dab][Dab][dF]L[Dab][Dab]T; disulfide 2-11; lactam 15-C) | 0.125 | 0.25 | 0.25 | 0.5 | 2 | 1 | 2 | <1 | –
8 | CCCC[C@@H]1NC(=O)[C@@H]2CCCN2C(=O)[C@H]2CCCN2C(=O)[C@H](CO)NC(=O)[C@H](C)NC(=O)[C@H](C(C)(C)C)NC(=O)[C@H](CCN)NC(=O)[C@H](Cc2c[nH]c3ccccc23)NC(=O)[C@H](CCN)NC(=O)[C@@H](CCN)NC(=O)[C@H](CC(=O)N[C@H](CCN)C(=O)N[C@H]2CCNC(=O)[C@H]([C@@H](C)O)NC(=O)[C@H](CCN)NC(=O)[C@H](CCN)NC(=O)[C@H](CC(C)C)NC(=O)[C@@H](Cc3ccccc3)NC(=O)[C@H](CCN)NC2=O)NC(=O)[C@H](CCN)NC(=O)[C@H](Cc2ccc(O)cc2)NC(=O)[C@H](CO)NC1=O [Ex. 66] (I: cyclo([Nle]SY[Dab]D[dDab][Dab]W[Dab][Tle]AS[dP]P) / II: [dDab][Dab][Dab][dF]L[Dab][Dab]T; amide I:5-II:N; lactam II:2-II:C) | 4 | 1 | 2 | 0.25 | 2 | 1 | 1 | – | 1
